Data taken from patent publication US10174036B2, “Substituted pyrazoles as JAK inhibitors” (WUXI FORTUNE PHARMACEUTICAL CO., LTD, priority 2015, dated 2019).

Experiments:
Type in all cases: biochemical
JAK3 = target: T1, JAK3 (Homo sapiens, UniProt P52333); assay: Test for in vitro activity of JAK3 kinase (LANCE Ultra ULight-JAK-1 peptide); details: selectivity ratio JAK3 versus JAK2; class symbol
T1 construct: purchased Life technology
T1 sequence (P52333 1-1124): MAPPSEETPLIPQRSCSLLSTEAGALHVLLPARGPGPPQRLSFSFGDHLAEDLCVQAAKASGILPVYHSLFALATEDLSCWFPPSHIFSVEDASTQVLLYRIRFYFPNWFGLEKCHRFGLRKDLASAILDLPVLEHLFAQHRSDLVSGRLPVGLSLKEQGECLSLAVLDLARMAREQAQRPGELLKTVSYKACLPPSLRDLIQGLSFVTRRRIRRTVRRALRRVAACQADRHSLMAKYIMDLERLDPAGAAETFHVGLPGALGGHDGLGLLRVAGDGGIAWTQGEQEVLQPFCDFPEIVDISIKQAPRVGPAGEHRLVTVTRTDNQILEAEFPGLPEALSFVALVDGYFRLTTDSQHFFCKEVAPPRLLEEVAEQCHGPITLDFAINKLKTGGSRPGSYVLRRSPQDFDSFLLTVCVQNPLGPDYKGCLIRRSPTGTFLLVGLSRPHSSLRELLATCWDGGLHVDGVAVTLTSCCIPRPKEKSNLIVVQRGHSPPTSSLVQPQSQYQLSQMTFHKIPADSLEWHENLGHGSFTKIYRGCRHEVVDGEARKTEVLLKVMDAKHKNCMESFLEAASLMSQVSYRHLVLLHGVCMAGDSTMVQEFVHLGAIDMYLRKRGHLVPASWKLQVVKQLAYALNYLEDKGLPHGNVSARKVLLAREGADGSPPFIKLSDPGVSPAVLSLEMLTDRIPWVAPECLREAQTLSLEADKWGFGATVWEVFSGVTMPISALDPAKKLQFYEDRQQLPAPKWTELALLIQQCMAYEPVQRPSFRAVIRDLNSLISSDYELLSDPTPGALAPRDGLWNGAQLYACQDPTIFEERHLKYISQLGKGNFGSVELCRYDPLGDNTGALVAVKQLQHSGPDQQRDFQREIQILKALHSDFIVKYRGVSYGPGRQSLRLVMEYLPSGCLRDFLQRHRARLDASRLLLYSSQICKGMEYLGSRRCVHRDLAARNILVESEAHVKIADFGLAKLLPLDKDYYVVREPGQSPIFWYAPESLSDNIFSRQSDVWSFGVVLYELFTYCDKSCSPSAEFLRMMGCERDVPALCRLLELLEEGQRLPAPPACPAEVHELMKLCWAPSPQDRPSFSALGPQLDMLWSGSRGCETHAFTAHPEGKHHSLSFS
Description: (§1) Test for In Vitro Activity of Jak1, Jak2, and Jak3 Kinase
(§2) Recombinant human […] of JAK1, JAK2 and JAK3 were purchased from Life technology. LANCE Ultra ULight™-JAK-1 (Tyr1023) peptide and LANCE Eu-W1024 Anti-phosphotyrosine (PT66) were purchased from PerkinElmer. Multimode ELISA, Envison(PerkinElmer) reader was used.
0.05 nM of JAK3 Protein kinase, 50 nM of LANCE Ultra ULight™-JAK-1(Tyr1023) peptide, 4 uM of ATP, 50 mM of HEPES (pH 7.5), 10 mM of MgCl2, 1 mM of EGTA, 2 mM of DTT, 0.01% BRIJ-35. […] The reaction was carried out at room temperature for 90 min and the reaction system was 10 ul.
(§3) Determination for Reaction
(§4) 10 ul detection reagent was added to reaction plate, wherein the final concentration of LANCE Eu-W1024 Anti-phosphotyrosine (PT66) was 2 nM, the final concentration of EDTA was […], incubated at room temperature for 60 min, with Envison reader.
(§5) The reading was converted to inhibition ratio (%) by the following formula: the inhibition ratio (%)=([…])/(Max−Min)×100%.

JAK1 = target: T2, JAK1 (Homo sapiens, UniProt P23458); assay: Test for in vitro activity of JAK1 kinase (LANCE Ultra ULight-JAK-1 peptide); details: selectivity ratio JAK1 versus JAK2; class symbol
T2 construct: purchased Life technology
Description: as §1, §2
The reaction was carried out at room temperature for 90 min and the reaction system was 10 ul.
as §3, §4, §5

JAK2 = target: T3, JAK2 (Homo sapiens, UniProt O60674); assay: Test for in vitro activity of JAK2 kinase (LANCE Ultra ULight-JAK-1 peptide); details: recombinant human JAK2, 12 uM ATP, 60 min; class symbol
T3 construct: purchased Life technology
Description: as §1, §2
The reaction was carried out at room temperature for 60 min and the reaction system was 10 ul.
as §3, §4, §5

T2 sequence (P23458 whole entry): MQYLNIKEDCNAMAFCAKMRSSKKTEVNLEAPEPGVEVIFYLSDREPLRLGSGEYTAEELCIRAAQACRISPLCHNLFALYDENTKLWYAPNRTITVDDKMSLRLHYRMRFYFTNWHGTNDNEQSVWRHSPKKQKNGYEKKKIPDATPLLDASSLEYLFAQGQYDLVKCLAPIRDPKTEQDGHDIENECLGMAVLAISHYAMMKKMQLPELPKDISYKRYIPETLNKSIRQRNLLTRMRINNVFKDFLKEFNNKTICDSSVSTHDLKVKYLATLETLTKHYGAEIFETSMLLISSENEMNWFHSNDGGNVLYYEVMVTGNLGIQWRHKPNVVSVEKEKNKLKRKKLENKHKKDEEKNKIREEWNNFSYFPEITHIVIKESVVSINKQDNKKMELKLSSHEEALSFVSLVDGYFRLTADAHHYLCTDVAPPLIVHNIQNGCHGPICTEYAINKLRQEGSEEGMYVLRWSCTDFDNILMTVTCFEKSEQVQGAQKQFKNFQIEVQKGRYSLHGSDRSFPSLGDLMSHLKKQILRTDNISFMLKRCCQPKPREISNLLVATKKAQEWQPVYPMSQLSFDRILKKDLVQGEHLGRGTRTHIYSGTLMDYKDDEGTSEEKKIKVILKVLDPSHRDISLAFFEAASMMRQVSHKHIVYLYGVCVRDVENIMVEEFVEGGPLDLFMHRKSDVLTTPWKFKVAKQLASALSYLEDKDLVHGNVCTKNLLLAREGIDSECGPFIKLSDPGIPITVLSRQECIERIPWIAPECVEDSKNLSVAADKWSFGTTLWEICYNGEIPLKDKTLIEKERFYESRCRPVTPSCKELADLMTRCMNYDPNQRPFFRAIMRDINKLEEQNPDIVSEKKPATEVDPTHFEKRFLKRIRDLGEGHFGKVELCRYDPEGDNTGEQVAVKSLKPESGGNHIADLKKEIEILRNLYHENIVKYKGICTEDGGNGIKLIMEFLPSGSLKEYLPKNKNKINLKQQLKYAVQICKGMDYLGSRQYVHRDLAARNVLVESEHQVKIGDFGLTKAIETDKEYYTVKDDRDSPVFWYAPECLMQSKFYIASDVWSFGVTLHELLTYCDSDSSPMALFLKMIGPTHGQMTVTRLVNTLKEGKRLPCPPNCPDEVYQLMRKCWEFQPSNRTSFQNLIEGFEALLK
T3 sequence (O60674 whole entry): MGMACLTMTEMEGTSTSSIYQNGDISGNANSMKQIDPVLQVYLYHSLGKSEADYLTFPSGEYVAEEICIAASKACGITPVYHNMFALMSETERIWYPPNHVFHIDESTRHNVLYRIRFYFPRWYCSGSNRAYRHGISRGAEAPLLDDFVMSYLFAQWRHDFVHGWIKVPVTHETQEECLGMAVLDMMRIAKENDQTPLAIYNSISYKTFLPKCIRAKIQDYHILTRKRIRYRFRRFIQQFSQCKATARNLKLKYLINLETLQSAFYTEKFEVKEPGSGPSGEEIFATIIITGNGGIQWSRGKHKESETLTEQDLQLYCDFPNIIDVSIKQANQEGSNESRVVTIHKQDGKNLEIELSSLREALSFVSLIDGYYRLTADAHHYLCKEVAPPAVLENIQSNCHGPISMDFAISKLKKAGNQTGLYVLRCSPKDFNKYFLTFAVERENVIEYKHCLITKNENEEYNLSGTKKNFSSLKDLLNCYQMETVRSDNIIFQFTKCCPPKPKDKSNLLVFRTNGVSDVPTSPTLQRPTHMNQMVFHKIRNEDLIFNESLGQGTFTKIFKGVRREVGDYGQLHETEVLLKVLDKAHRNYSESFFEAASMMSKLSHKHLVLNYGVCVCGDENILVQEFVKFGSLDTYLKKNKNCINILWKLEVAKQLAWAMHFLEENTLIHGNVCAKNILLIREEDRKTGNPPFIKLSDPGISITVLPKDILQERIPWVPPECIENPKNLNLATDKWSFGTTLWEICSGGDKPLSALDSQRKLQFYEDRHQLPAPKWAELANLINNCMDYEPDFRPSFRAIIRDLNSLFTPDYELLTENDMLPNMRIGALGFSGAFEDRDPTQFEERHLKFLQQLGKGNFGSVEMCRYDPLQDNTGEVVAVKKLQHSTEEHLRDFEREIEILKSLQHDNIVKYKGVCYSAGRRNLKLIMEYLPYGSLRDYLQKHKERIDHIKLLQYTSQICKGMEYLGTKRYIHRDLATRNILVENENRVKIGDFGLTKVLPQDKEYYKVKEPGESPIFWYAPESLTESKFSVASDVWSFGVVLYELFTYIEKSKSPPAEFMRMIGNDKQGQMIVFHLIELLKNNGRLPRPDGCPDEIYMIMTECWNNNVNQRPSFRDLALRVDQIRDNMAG

## N#CCC1(n2cc(-c3cccc4nc(NC(=O)C5CC5)nn34)cn2)CNC1 [WX00, N-[5-[1-[3-(cyanomethyl)azetidine-3-yl]pyrazole-4-yl]-[1,2,4]triazolo[1,5-a]pyridin-2-yl] cyclopropane carboxamide]
JAK3
  JAK3/JAK2 (times): F4 (25 < F4 ≤ 100)
JAK1
  JAK1/JAK2 (times): F1 (1 ≤ F1 ≤ 5)
JAK2
  IC50: 0.01 to 0.1 µM

## CCS(=O)(=O)N1CC(CC#N)(n2cc(-c3nccc4nc(NC(=O)C5CC5)nn34)cn2)C1 [WX01, N-[5-[1-[3-(cyanomethyl)-1-ethylsulfonylazetidine-3-yl]pyrazole-4-yl]-[1,2,4]triazolo[1,5-c]pyrimidin-2-yl]cyclopropanecarboxamide]
JAK3
  JAK3/JAK2 (times): F3 (10 < F3 ≤ 25)
JAK1
  JAK1/JAK2 (times): F2 (5 < F2 ≤ 10)
JAK2
  IC50: 0.01 to 0.1 µM

## N#CCC1(n2cc(-c3nccc4nc(NC(=O)C5CC5)nn34)cn2)CN(S(=O)(=O)C(F)(F)F)C1 [WX02, N-[5-[1-[3-(cyanomethyl)-1-(trifluoromethylsulfonyl)azetidine-3-yl]pyrazole-4-yl]-[1,2,4]triazolo[1,5-c]pyrimidin-2-yl]cyclopropanecarboxamide]
JAK3
  JAK3/JAK2 (times): F3 (10 < F3 ≤ 25)
JAK1
  JAK1/JAK2 (times): F1 (1 ≤ F1 ≤ 5)
JAK2
  IC50: < 0.01 µM

## N#CCC1(n2cc(-c3nccc4nc(NC(=O)C5CC5)nn34)cn2)CN(S(=O)(=O)C2CC2)C1 [WX03, N-[5-[1-[3-(cyanomethyl)-1-cyclopropylsulfonyl-azetidine-3-yl]pyrazole-4-yl]-[1,2,4]triazolo[1,5-c]pyrimidin-2-yl]cyclopropanecarboxamide]
JAK3
  JAK3/JAK2 (times): F3 (10 < F3 ≤ 25)
JAK1
  JAK1/JAK2 (times): F2 (5 < F2 ≤ 10)
JAK2
  IC50: 0.01 to 0.1 µM

## CS(=O)(=O)N1CC(CC#N)(n2cc(-c3nccc4nc(N)nn34)cn2)C1 [WX04, 2-[3-[4-(2-amino-[1,2,4]triazolo[1,5-c]pyrimidin-5-yl)pyrazole-1-yl]-1-methylsulfonyl-cyclobutylamine-3-yl] acetonitrile]
JAK3
  JAK3/JAK2 (times): F3 (10 < F3 ≤ 25)
JAK1
  JAK1/JAK2 (times): F1 (1 ≤ F1 ≤ 5)
JAK2
  IC50: 0.01 to 0.1 µM

## N#CCC1(n2cc(-c3nccc4nc(N)nn34)cn2)CN(S(=O)(=O)C(F)(F)F)C1 [WX05, 2-[3-[4-(2-amino-[1,2,4]triazolo[1,5-c]pyrimidin-5-yl)pyrazole-1-yl]-1-(trifluoromethylsulfonyl)cyclobutylamine-3-yl]acetonitrile]
JAK3
  JAK3/JAK2 (times): F3 (10 < F3 ≤ 25)
JAK1
  JAK1/JAK2 (times): F1 (1 ≤ F1 ≤ 5)
JAK2
  IC50: 0.01 to 0.1 µM

## N#CCC1(n2cc(-c3nccc4nc(NC(=O)C5CNC5)nn34)cn2)CN(S(=O)(=O)C(F)(F)F)C1 [WX06, N-[5-[1-[3-(cyanomethyl)-1-(trifluoromethylsulfonyl)cyclobutylamine-3-yl]pyrazole-4-yl]-[1,2,4]triazolo[1,5-c]pyrimidin-2-yl]cyclobutylamine-3-formamide]
JAK3
  JAK3/JAK2 (times): F3 (10 < F3 ≤ 25)
JAK1
  JAK1/JAK2 (times): F1 (1 ≤ F1 ≤ 5)
JAK2
  IC50: 0.01 to 0.1 µM

## N#CCC1(n2cc(-c3nccc4nc(NC(=O)C5CC(O)C5)nn34)cn2)CN(S(=O)(=O)C(F)(F)F)C1 (stereo not drawn) [WX07, N-[5-[1-[3-(cyanomethyl)-1-(trifluoromethylsulfonyl)cyclobutylamine-3-yl]pyrazole-4-yl]-[1,2,4]triazolo[1,5-c]pyrimidin-2-yl]-3-hydroxy-cyclobutane formamide]
JAK3
  JAK3/JAK2 (times): F4 (25 < F4 ≤ 100)
JAK1
  JAK1/JAK2 (times): F2 (5 < F2 ≤ 10)
JAK2
  IC50: 0.01 to 0.1 µM

## N#CCC1(n2cc(-c3cccc4nc(NC(=O)C5CC5)nn34)cn2)CN(S(=O)(=O)C2CC2)C1 [WX08, N-(5-(1-(3-(cyanomethyl)-1-(cyclopropylsulfonyl)azetidine-3-yl)-1H-pyrazole-4-yl)-[1,2,4]triazolo[1,5-a]pyridin-2-yl)cyclopropane formamide]
JAK3
  JAK3/JAK2 (times): F4 (25 < F4 ≤ 100)
JAK1
  JAK1/JAK2 (times): F1 (1 ≤ F1 ≤ 5)
JAK2
  IC50: < 0.01 µM
